Experimental data as given in paper PMC8472562, “Oral Peptide Vaccine against Hookworm Infection: Correlation of Antibody Titers with Protective Efficacy” (Vaccines, 2021).
Entries after “also recorded” stand apart in the source; their conditions may differ. Bridge positions count the residues as written; N and C are the ends. I, II: the chains in the order shown.

What was measured:
[1] = target: T1, bovine trypsin (Bos taurus, UniProt P00760); assay: In vitro stability against proteolysis by bovine trypsin; type: in vitro ADME; conditions: bovine trypsin in PBS, 37 °C
T1 construct: purchased Sigma-Aldrich
T1 sequence (P00760 24-246): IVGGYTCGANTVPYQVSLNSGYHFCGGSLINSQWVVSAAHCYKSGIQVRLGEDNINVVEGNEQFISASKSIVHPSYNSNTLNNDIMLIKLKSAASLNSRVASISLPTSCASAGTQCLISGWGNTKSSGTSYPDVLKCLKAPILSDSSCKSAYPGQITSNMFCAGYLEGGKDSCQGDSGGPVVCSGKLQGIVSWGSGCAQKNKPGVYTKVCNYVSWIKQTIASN
Protocol: (§1) Enzyme 1000 U solution was prepared from bovine trypsin (10,000 U/mg, Sigma-Aldrich, Castle Hill, NSW, Australia) with 1 mM CaCl2 in 1 mL PBS, as reported previously. After preparation, 100 µL of enzyme solution was added to 400 µL of peptide solution (1.25 mg/mL) in PBS and incubated at 37 °C with shaking. To inhibit enzyme activity, 40 µL of TFA and acetonitrile mixture (1:2) was added to 60 µL aliquots of the mixture at each interval. The solution was analyzed by analytical HPLC with a calibration curve employing the compound’s peak at its characteristic retention time to determine intact compound concentration.

[2] = Secondary structure by ATR-FTIR; type: physicochemical; conditions: 2 mg/mL in PBS, 25 °C, triplicate spectra, second derivative
Protocol: The compounds’ secondary structures were evaluated according to the methodology of Yang et al.. Solutions of each compound in PBS (2 mg/mL) were prepared and placed on the diamond-attenuated total reflectance accessory of the ATR-FTIR, and absorbance spectra were collected from 500 and 4000 cm^−1, in triplicate, at 25 °C and 4 cm^−1 resolution. The first and second derivative of the absorbance spectra were generated and analyzed using Originpro 2020 software. The second derivative secondary structure component-peak assignment was also detected and quantified using Originpro 2020 software.

[3] = tested on: Nippostrongylus brasiliensis; type: in vivo, BALB/c mice; conditions: oral 4 × 100 µg; 750 L3 larvae s.c.; 7 days post-infection; one-way ANOVA and Mann Whitney U-test against negative control
[4] = tested on: mutant APR-1M74; assay: Serum anti-APR-1 IgG ELISA after oral immunization; type: in vivo, BALB/c mice; conditions: oral gavage 4 × 100 µg, two-week intervals, n = 8/group
[5] = tested on: p3 epitope; type: in vivo, BALB/c mice; conditions: oral gavage 4 × 100 µg; ELISA
[6] = tested on: T2, bovine trypsin; assay: In vitro stability against proteolysis by bovine trypsin; type: in vitro ADME; conditions: bovine trypsin 1000 U solution, 1 mM CaCl2 in PBS, 37 °C with shaking, analytical HPLC
T2 construct: purchased Sigma-Aldrich
Protocol: as §1

[7] = tested on: p3 epitope; type: in vivo, BALB/c mice; conditions: oral gavage 4 × 100 µg, two-week intervals, n = 8/group; ELISA; compared to PBS group or between groups
[8] = Particle size distribution by dynamic light scattering and TEM; type: physicochemical; conditions: 0.2 mg/mL in PBS, 25 °C, angle 173°
Protocol: Particle size distribution was evaluated by preparing a 0.2 mg/mL solution of each pure compound in PBS and measured using dynamic light scattering (DLS; Zetasizer Nano ZP) at 25 °C and an angle of 173°.
Compounds were evaluated by transmission electron microscopy using a JEM-1010 microscope (JEOL LTD, Tokyo, Japan) at 100 kV. The images were analyzed using AnalySIS® software (Megaview III, Munster, Germany).

In the case of “Ac-TSLIAGPKAQVEAIQKYIGAELKKLIPNASLIENCTKAELSKKKK-NH2 [p3-P25]”, the “time to almost complete degradation by trypsin” value ([1]; analytical HPLC) was “less than 30 min”.

With “Ac-LLLLLLLLLLTSLIAGPKAQVEAIQKYIGAELKKLIPNASLIENCTKAELSKKKK-NH2 (N-terminus and C-terminus assumed) [LL10]” the β-sheet contribution [2] was 6%, the “parasite and egg numbers after challenge infection, in words” value [3] was “highest significant reduction in worm burden; also recorded: significantly reduced” and the “serum anti-APR-1 IgG titers” value [4] was “highest”. For the same substance, the “mucosal antibody responses (saliva and fecal extracts, IgA and IgG)” value [5] was “detectable”, the metabolised at 0.5 h, 1 mg/mL ([6]; 100 µL enzyme + 400 µL peptide 1.25 mg/mL, 30 min, read-out: degradation after 30 min of incubation with trypsin) was 25% and the remaining at 1 h, 1 mg/mL ([6]; peptide 1.25 mg/mL, 60 min, read-out: conjugate remained intact after 60 min) was 15%. For the same substance, the “serum p3-IgG titers” value [7] was “highest; also recorded: significantly higher”, the “polydispersity index (PDI)” value ([8]; DLS) was 0.36 ± 0.1 and the nanoparticle size ([8]; self-assembled, electron microscopy and DLS, LCP, BL10, LL10 also formed aggregates) was 22 nm.

In the case of “I: Ac-TSLIAGPKAQVEAIQKYIGAELKKLIPNASLIENCTKAELSKKKK-NH2 / II: Ac-LLLLLLLLLL (amide I:23-II:C) [BL10]”, the “stability against trypsin degradation, comparison in words” value ([1]; one-way ANOVA with Tukey's test) was “significantly slower than p3-P25”.
